Results published in article PMC7226469, “Polyketide-Derived Secondary Metabolites from a Dothideomycetes Fungus, Pseudopalawania siamensis gen. et sp. nov., (Muyocopronales) with Antimicrobial and Cytotoxic Activities” (Biomolecules, 2020).
≈ marks a conversion by molar mass, not a printed value. Counter-ions that a name gives are not always drawn. Like-named read-outs stand apart in the source and are kept apart here.

Key:
[1] = test system: HeLa cells KB3.1; assay: In vitro cytotoxicity, MTT assay; format: cell-based; conditions: Homo sapiens
Description: (§1) Gentamicin, kanamycin, nystatin, and oxytetracycline were used as positive controls against tested organisms. […] Epothilone B and methanol were used as positive and negative control, respectively.
(§2) The polyketides 1–5 were evaluated for their antimicrobial activity against selected microorganisms (Table 3) and cytotoxicity against two mammalian cell lines, HeLa cells KB3.1 and mouse fibroblast cell line L929 (Table 4). The starting concentration for antimicrobial assay and cytotoxicity assay were 66.7 and 300 µg/mL, respectively and the substances were dissolved in MeOH (1 mg/mL). […] Results were expressed as MIC or minimum inhibitory concentration (μg/mL) and IC50 or half maximal inhibitory concentration (μM) (Table 3 and Table 4).

[2] = test system: Mouse fibroblast L929; assay: In vitro cytotoxicity, MTT assay; format: cell-based
Description: as §1, §2

[3] = test system: Pseudomonas aeruginosa; assay: MIC, 96-well serial dilution; format: cell-based; conditions: strain PA14; starting concentration 66.7 µg/mL; control volume in brackets; note: key: (-): no inhibition
Description: as §1, §2

[4] = test system: Escherichia coli; assay: MIC, 96-well serial dilution; format: cell-based; conditions: strain DSM 1116, starting concentration 66.7 µg/mL, control volume in brackets; note: key: (-): no inhibition
Description: as §1, §2

[5] = test system: Mucor hiemalis; assay: MIC, 96-well serial dilution; format: cell-based; for Minimum Inhibitory Concentration (MIC): key: (-): no inhibition
Description: as §1, §2

[6] = test system: Bacillus subtilis; assay: MIC, 96-well serial dilution; format: cell-based; conditions: for MIC: Bacillus subtilis
Description: as §1, §2

[7] = test system: Staphylococcus aureus; assay: MIC, 96-well serial dilution; format: cell-based; conditions: for MIC: Staphylococcus aureus
Description: as §1, §2

[8] = test system: Chromobacterium violaceum; assay: MIC, 96-well serial dilution; format: cell-based; conditions: strain DSM 30191, starting concentration 66.7 µg/mL, control volume in brackets; note: key: (-): no inhibition
Description: as §1, §2

[9] = test system: Micrococcus luteus; assay: MIC, 96-well serial dilution; format: cell-based; conditions: for MIC: Micrococcus luteus
Description: as §1, §2

[10] = test system: several cancer cell lines; parameters: method as in PMID 30258223; conditions: cell proliferation inhibition and apoptosis induction; cited from earlier work
[11] = parameters: method as in PMID 30258223; conditions: cited from earlier work
[12] = test system: various fungal and bacterial strains; assay: Antimicrobial activity against selected microorganisms (summary statements); format: cell-based; conditions: for Antimicrobial activity (in words): fungi and bacteria of Table 3
Description: as §1, §2

[13] = test system: Mycobacterium smegmatis; assay: MIC, 96-well serial dilution; format: cell-based
Description: as §1, §2

[14] = test system: Candida albicans; assay: MIC, 96-well serial dilution; format: cell-based
Description: as §1, §2

[15] = test system: CXCR4-tropic HIV-1; parameters: method as in PMID 29258357; conditions: inhibition of infection; cited from earlier work
[16] = test system: MDA-MB-435 human melanoma cells; parameters: method as in PMID 23232928; conditions: cited from earlier work
[17] = test system: E. coli; parameters: method as in PMID 30258223; conditions: cited from earlier work
[18] = test system: Pseudoalteromonas nigrifaciens; parameters: method as in PMID 30258223; conditions: cited from earlier work
[19] = test system: B. subtilis; parameters: method as in PMID 30258223; conditions: cited from earlier work
[20] = test system: SW620 human colorectal adenocarcinoma cell lines; parameters: method as in PMID 23232928; conditions: cited from earlier work
[21] = test system: CCR5-tropic HIV-1; parameters: method as in PMID 29258357; conditions: inhibition of infection; cited from earlier work
[22] = test system: M. luteus; parameters: method as in PMID 30258223; conditions: cited from earlier work
[23] = test system: HeLa cells KB3.1 and mouse fibroblast cell line L929; assay: Cytotoxicity against two mammalian cell lines (summary statements); conditions: HeLa KB3.1 and L929
Description: as §1, §2

[24] = test system: Schizosaccharomyces pombe; assay: MIC, 96-well serial dilution; format: cell-based; conditions: strain DSM 70572; starting concentration 66.7 µg/mL; control volume in brackets
Description: as §1, §2

[25] = test system: Cryptococcus neoformans; assay: MIC, 96-well serial dilution; format: cell-based; conditions: strain DSM 15466; starting concentration 66.7 µg/mL; control volume in brackets
Description: as §1, §2

[26] = test system: Pichia anomala; assay: MIC, 96-well serial dilution; format: cell-based; conditions: strain DSM 6766; starting concentration 66.7 µg/mL; control volume in brackets
Description: as §1, §2

[27] = test system: Rhodoturula glutinis; assay: MIC, 96-well serial dilution; format: cell-based; conditions: strain DSM 10134; starting concentration 66.7 µg/mL; control volume in brackets
Description: as §1, §2

[28] = MTT assay, HeLa cells KB3.1, starting concentration 66 μg/mL, read-out: IC50
[29] = MTT assay, mouse fibroblast L929, starting concentration 66 μg/mL, read-out: IC50
[30] = strain DSM 6766, starting concentration 66.7 µg/mL, control volume in brackets
[31] = DSM10, strain DSM 10, starting concentration 66.7 µg/mL, control volume in brackets, read-out: Minimum Inhibitory Concentration (MIC)
[32] = DSM346, strain DSM 346, starting concentration 66.7 µg/mL, control volume in brackets, read-out: Minimum Inhibitory Concentration (MIC)
[33] = DSM1790, strain DSM 1790, starting concentration 66.7 µg/mL, control volume in brackets, read-out: Minimum Inhibitory Concentration (MIC)
[34] = strain DSM 10, starting concentration 66.7 µg/mL, control volume in brackets
[35] = strain DSM 346, starting concentration 66.7 µg/mL, control volume in brackets
[36] = strain DSM 1790, starting concentration 66.7 µg/mL, control volume in brackets

In the case of `COC(=O)C1(C2OC(=O)CC2C)CC(=O)c2c(O)ccc(-c3ccc4c(c3O)C(=O)C3(O)C5(O)CC(C)C(O)C3(O4)C(=O)O5)c2O1` (stereo not drawn) [Compound 1, pseudopalawanone], the IC50 [1, 28] is reported as 29.7 µM, the IC50 [2, 29] is reported as 50 µM and the “Minimum Inhibitory Concentration (MIC)” value [3] is reported as “-”. The “Minimum Inhibitory Concentration (MIC)” value [4] was “-”, the “Minimum Inhibitory Concentration (MIC)” value [5, 30] was “-” and the MIC [6, 31] was 66.7 µg/mL (≈ 104 µM). For the same compound, the MIC [7, 32] was 66.7 µg/mL (≈ 104 µM), the “Minimum Inhibitory Concentration (MIC)” value [8] was “-” and the MIC [9, 33] was 66.7 µg/mL (≈ 104 µM).

In the case of `C[C@H]1CC(O)=C2C(=O)c3c(O)ccc(-c4ccc(O)c5c4O[C@]4(C(=O)O)C(=C(O)C[C@H](C)[C@H]4O)C5=O)c3O[C@@]2(C(=O)O)[C@@H]1O` [Compound 2, 4,4′-secalonic acid D], the IC50 [1, 28] is given as 3.9 µM, the IC50 [2, 29] is given as 14.1 µM and the “Antitumor activity (in words)” value [10] is given as ““potent” antitumor activity”. For the same compound, the “Toxicity (in words)” value [11] was “low toxicity”, the “Inhibitory activity against Gram-positive bacteria (in words)” value ([12]; Bacillus subtilis, Micrococcus luteus, Mycobacterium smegmatis, Staphylococcus aureus) was “showed inhibitory activity” and the “Minimum Inhibitory Concentration (MIC)” value [3] was “-”. For the same compound, the “Activity against Mycobacterium smegmatis (in words)” value [13] was “showed activity”, the MIC ([13]; Mycolicibacterium smegmatis, ATCC700084, read-out: Minimum Inhibitory Concentration (MIC)) was 66.7 µg/mL (≈ 109 µM) and the “Minimum Inhibitory Concentration (MIC)” value [4] was “-”. For the same compound, the “Minimum Inhibitory Concentration (MIC)” value [5, 30] was “-”, the MIC ([6]; DSM10, read-out: Minimum Inhibitory Concentration (MIC)) was 1 µg/mL (≈ 1.64 µM) and the MIC ([7]; DSM346, read-out: Minimum Inhibitory Concentration (MIC)) was 4.2 µg/mL (≈ 6.88 µM). For the same compound, the MIC ([14]; Candida albicans, DSM1665, read-out: Minimum Inhibitory Concentration (MIC)) was 66.7 µg/mL (≈ 109 µM), the “Inhibition of Candida albicans (in words)” value ([14]; comparable to nystatin) was “showed inhibition” and the “Minimum Inhibitory Concentration (MIC)” value [8] was “-”. For the same compound, the MIC ([9]; DSM1790, read-out: Minimum Inhibitory Concentration (MIC)) was 8.3 µg/mL (≈ 13.6 µM).

In the case of `C[C@H]1CC(O)=C2C(=O)c3c(ccc(-c4ccc(O)c5c4O[C@]4(C(=O)O)C(=C(O)C[C@H](C)[C@@H]4O)C5=O)c3O)O[C@@]2(C(=O)O)[C@H]1O` [Compound 3, penicillixanthone A], the “Anti-HIV-1 activity (in words)” value [15] is listed as “inhibiting”, the IC50 [1, 28] is listed as 17.2 µM and the IC50 [2, 29] is listed as over 103 µM. For the same compound, the “Cytotoxic effects (in words)” value [16] was “moderate cytotoxic effects”, the “Antibacterial activity (in words)” value [17] was “moderate antibacterial activity” and the “Antibacterial activity (in words)” value [18] was “moderate antibacterial activity”. The “Antibacterial activity (in words)” value [19] was “moderate antibacterial activity”, the “Cytotoxic effects (in words)” value [20] was “moderate cytotoxic effects” and the “Anti-HIV-1 activity (in words)” value [21] was “inhibiting”. The “Antibacterial activity (in words)” value [22] was “moderate antibacterial activity”, the “Minimum Inhibitory Concentration (MIC)” value [3] was “-” and the “Minimum Inhibitory Concentration (MIC)” value [4] was “-”. The MIC ([5]; Mucor hiemalis, DSM6766, strain DSM 6766, starting concentration 66.7 µg/mL, control volume in brackets, read-out: Minimum Inhibitory Concentration (MIC)) was 66.7 µg/mL (≈ 109 µM), the “Inhibition of Mucor hiemalis (in words)” value ([5]; comparable to nystatin) was “inhibited” and the MIC [6, 31] was 4.2 µg/mL (≈ 6.88 µM). For the same compound, the MIC [7, 32] was 33.3 µg/mL (≈ 54.5 µM), the “Minimum Inhibitory Concentration (MIC)” value [8] was “-” and the MIC [9, 33] was 33.3 µg/mL (≈ 54.5 µM).

For `COC(=O)C1(C2OC(=O)CC2C)CC(=O)c2c(O)cccc2O1` (stereo not drawn) [Compound 4, paecilin B], the “Cytotoxic activity (in words)” value [23] was “neither antimicrobial nor cytotoxic activities”, the IC50 [1, 28] was over 200 µM and the IC50 [2, 29] was over 103 µM. For the same compound, the “Antimicrobial activity (in words)” value [12] was “neither antimicrobial nor cytotoxic activities”, the “Minimum Inhibitory Concentration (MIC)” value [3] was “-” and the “Minimum Inhibitory Concentration (MIC)” value [4] was “-”. For the same compound, the “Minimum Inhibitory Concentration (MIC)” value [5, 30] was “-”, the “Minimum Inhibitory Concentration (MIC)” value [6, 34] was “-” and the “Minimum Inhibitory Concentration (MIC)” value [7, 35] was “-”. The “Minimum Inhibitory Concentration (MIC)” value [8] was “-” and the “Minimum Inhibitory Concentration (MIC)” value [9, 36] was “-”.

In the case of `Cc1ccc(C(=O)c2c(O)cccc2C(=O)O)c(O)c1` [Compound 5, cephalanone F], the “Cytotoxic activity (in words)” value [23] is reported as “neither antimicrobial nor cytotoxic activities”, the IC50 [1, 28] is reported as over 200 µM and the IC50 [2, 29] is reported as over 103 µM. The “Antimicrobial activity (in words)” value [12] was “neither antimicrobial nor cytotoxic activities”, the “Minimum Inhibitory Concentration (MIC)” value [3] was “-” and the “Minimum Inhibitory Concentration (MIC)” value [4] was “-”. For the same compound, the “Minimum Inhibitory Concentration (MIC)” value [5, 30] was “-”, the “Minimum Inhibitory Concentration (MIC)” value [6, 34] was “-” and the “Minimum Inhibitory Concentration (MIC)” value [7, 35] was “-”. For the same compound, the “Minimum Inhibitory Concentration (MIC)” value [8] was “-” and the “Minimum Inhibitory Concentration (MIC)” value [9, 36] was “-”.

`C/C(=C\c1csc(C)n1)[C@@H]1C[C@@H]2O[C@]2(C)CCC[C@H](C)[C@H](O)[C@@H](C)C(=O)C(C)(C)[C@@H](O)CC(=O)O1` [Epothilone B, reference compound] showed an IC50 [1] of 8.9e-05 µM and an IC50 ([2]; Mus musculus, L929) of 0.0018 µM.

For `NC[C@H]1O[C@H](O[C@H]2[C@H](O)[C@@H](O[C@H]3O[C@H](CO)[C@@H](O)[C@H](N)[C@H]3O)[C@H](N)C[C@@H]2N)[C@H](O)[C@@H](O)[C@@H]1O` [K, kanamycin, reference compound], the “Minimum Inhibitory Concentration (MIC)” value ([13]; strain ATCC 700084, starting concentration 66.7 µg/mL, control volume in brackets) was 3.3 (2 µL K) μg/mL.

For `C[C@@H]1[C@H](O)[C@@H](C)/C=C/C=C/CC/C=C/C=C/C=C/C=C/C(O[C@H]2O[C@H](C)[C@@H](O)[C@H](N)[C@@H]2O)CC2O[C@](O)(CC(O)C(O)CCC(O)CC(O)CC(O)CC(=O)O[C@H]1C)CC(O)C2C(=O)O` (stereo partly drawn) [N, nystatin], the “Minimum Inhibitory Concentration (MIC)” value [24] was 33.3 (20 µL N) μg/mL, the “Minimum Inhibitory Concentration (MIC)” value [25] was 66.7 (20 µL N) μg/mL and the “Minimum Inhibitory Concentration (MIC)” value [26] was 66.7 (20 µL N) μg/mL. For the same compound, the “Minimum Inhibitory Concentration (MIC)” value ([14]; strain DSM 1665, starting concentration 66.7 µg/mL, control volume in brackets) was 66.7 (20 µL N) μg/mL and the “Minimum Inhibitory Concentration (MIC)” value [27] was 16.7 (20 µL N) μg/mL.

`CN(C)[C@@H]1C(O)=C(C(N)=O)C(=O)[C@@]2(O)C(O)=C3C(=O)c4c(O)cccc4[C@@](C)(O)[C@H]3[C@H](O)[C@@H]12` [O, oxytetracycline hydrochloride, reference compound] showed an MIC ([4]; Escherichia coli, DSM1116, read-out: Minimum Inhibitory Concentration (MIC)) of 3.3 µg/mL, an MIC [6, 31] of 8.3 µg/mL and an MIC [7, 32] of 0.2 µg/mL. It also gave an MIC ([8]; Chromobacterium violaceum, DSM30191, read-out: Minimum Inhibitory Concentration (MIC)) of 1.7 µg/mL and an MIC [9, 33] of 0.4 µg/mL.
